Measured values: paper PMC9492542, “Brain-restricted mTOR inhibition with binary pharmacology” (Nature, 2022)
Several values for one entry are separate records, joined by “and”; a condition that tells them apart may be missing. Equal entries are not always repeated. Where two headings read alike, the source gives them in different places.

Experiments:
[1] = molecular target: T1, LRRK2 (Homo sapiens, UniProt Q5S007); assay: In vitro LRRK2 kinase inhibition assay (SelectScreen Adapta), with or without 10 µM FKBP12; type: biochemical
T1 construct: purchased SelectScreen Services (Thermo Fisher Scientific)
T1 sequence (Q5S007 whole entry): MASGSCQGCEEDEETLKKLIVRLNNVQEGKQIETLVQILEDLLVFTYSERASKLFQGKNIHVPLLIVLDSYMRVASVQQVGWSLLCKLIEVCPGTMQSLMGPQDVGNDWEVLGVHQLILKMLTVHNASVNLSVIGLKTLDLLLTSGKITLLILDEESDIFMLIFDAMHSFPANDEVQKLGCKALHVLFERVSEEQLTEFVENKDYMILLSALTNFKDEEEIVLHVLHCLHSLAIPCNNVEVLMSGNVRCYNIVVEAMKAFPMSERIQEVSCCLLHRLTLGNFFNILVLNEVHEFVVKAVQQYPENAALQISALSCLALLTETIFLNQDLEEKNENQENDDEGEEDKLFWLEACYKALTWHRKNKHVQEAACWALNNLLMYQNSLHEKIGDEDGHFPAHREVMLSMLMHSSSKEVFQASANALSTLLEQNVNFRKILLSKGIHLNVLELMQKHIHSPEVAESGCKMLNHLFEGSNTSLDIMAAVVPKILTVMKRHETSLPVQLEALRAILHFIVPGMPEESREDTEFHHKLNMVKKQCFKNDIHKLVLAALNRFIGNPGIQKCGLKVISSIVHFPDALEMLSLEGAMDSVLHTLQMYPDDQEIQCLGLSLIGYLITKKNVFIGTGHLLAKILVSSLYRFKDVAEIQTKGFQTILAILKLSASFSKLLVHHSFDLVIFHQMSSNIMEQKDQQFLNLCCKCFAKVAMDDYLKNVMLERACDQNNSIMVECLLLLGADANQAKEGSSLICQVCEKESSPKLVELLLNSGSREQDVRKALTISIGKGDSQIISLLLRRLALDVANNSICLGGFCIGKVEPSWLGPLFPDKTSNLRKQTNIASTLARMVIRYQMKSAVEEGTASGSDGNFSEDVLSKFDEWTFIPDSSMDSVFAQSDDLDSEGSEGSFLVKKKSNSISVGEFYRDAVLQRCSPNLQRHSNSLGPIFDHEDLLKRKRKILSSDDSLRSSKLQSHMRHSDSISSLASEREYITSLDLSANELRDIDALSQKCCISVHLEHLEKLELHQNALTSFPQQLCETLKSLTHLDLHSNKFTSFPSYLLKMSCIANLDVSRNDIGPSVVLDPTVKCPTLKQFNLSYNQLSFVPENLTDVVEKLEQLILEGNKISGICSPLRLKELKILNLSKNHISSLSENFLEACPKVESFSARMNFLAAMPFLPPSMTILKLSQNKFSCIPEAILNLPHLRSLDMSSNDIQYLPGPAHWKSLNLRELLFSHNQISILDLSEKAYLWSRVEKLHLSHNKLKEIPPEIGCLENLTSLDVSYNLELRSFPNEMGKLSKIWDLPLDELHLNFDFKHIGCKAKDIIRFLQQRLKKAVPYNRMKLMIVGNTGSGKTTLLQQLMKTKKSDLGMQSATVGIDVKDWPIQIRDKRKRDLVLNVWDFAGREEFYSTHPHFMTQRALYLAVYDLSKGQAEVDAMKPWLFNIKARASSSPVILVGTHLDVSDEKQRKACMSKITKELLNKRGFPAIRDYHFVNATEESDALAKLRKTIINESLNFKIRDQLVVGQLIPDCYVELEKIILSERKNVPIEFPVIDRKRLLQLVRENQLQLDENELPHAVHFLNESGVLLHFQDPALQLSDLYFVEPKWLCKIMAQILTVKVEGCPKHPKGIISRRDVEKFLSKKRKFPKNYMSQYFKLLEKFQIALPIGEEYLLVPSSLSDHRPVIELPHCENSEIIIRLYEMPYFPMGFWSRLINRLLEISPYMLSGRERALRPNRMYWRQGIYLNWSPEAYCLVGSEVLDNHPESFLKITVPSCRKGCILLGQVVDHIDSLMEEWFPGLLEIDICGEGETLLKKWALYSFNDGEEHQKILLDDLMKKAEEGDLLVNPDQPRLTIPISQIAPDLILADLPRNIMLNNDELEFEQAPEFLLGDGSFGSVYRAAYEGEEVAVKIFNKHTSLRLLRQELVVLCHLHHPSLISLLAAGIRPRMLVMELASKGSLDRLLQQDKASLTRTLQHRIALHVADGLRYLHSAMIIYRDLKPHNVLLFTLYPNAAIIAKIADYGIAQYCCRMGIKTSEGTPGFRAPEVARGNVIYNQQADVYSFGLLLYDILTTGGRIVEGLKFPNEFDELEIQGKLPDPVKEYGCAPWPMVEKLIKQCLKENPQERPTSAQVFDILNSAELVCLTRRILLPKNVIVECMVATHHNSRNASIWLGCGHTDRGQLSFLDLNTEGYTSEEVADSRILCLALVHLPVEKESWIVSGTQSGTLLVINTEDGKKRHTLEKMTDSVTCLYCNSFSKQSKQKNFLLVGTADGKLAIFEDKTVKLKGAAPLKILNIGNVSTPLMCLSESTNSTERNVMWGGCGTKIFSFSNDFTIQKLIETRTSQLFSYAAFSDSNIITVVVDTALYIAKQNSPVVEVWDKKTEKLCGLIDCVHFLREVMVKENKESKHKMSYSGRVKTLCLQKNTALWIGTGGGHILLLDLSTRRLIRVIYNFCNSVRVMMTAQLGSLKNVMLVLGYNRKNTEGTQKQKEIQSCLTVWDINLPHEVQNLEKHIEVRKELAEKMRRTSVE
Protocol: In vitro kinase inhibition assays were performed by SelectScreen Services (Thermo Fisher Scientific) using either Z’-LYTE (mTOR, Src, Csk, EGFR, HER2 and HGK), Adapta (LRRK2) or LanthaScreen (DDR2) assay format (standardized protocols can be accessed on the SelectScreen website: https://www.thermofisher.com/us/en/home/products-and-services/services/custom-services/screening-and-profiling-services/selectscreen-profiling-service/selectscreen-kinase-profiling-service.html. When indicated, recombinant FKBP12 protein was added to the assay mixture to a final concentration of 10 µM.

[2] = molecular target: LRRK2 (Mus musculus, UniProt Q5S006); assay: Phospho-LRRK2 (S935) quantification by TR-FRET in RAW264.7 cells; details: for P-LRRK2(S935) in RAW264.7 cells: replicate raw data
LRRK2 (Mus musculus, UniProt Q5S006), sequence (Q5S006 whole entry): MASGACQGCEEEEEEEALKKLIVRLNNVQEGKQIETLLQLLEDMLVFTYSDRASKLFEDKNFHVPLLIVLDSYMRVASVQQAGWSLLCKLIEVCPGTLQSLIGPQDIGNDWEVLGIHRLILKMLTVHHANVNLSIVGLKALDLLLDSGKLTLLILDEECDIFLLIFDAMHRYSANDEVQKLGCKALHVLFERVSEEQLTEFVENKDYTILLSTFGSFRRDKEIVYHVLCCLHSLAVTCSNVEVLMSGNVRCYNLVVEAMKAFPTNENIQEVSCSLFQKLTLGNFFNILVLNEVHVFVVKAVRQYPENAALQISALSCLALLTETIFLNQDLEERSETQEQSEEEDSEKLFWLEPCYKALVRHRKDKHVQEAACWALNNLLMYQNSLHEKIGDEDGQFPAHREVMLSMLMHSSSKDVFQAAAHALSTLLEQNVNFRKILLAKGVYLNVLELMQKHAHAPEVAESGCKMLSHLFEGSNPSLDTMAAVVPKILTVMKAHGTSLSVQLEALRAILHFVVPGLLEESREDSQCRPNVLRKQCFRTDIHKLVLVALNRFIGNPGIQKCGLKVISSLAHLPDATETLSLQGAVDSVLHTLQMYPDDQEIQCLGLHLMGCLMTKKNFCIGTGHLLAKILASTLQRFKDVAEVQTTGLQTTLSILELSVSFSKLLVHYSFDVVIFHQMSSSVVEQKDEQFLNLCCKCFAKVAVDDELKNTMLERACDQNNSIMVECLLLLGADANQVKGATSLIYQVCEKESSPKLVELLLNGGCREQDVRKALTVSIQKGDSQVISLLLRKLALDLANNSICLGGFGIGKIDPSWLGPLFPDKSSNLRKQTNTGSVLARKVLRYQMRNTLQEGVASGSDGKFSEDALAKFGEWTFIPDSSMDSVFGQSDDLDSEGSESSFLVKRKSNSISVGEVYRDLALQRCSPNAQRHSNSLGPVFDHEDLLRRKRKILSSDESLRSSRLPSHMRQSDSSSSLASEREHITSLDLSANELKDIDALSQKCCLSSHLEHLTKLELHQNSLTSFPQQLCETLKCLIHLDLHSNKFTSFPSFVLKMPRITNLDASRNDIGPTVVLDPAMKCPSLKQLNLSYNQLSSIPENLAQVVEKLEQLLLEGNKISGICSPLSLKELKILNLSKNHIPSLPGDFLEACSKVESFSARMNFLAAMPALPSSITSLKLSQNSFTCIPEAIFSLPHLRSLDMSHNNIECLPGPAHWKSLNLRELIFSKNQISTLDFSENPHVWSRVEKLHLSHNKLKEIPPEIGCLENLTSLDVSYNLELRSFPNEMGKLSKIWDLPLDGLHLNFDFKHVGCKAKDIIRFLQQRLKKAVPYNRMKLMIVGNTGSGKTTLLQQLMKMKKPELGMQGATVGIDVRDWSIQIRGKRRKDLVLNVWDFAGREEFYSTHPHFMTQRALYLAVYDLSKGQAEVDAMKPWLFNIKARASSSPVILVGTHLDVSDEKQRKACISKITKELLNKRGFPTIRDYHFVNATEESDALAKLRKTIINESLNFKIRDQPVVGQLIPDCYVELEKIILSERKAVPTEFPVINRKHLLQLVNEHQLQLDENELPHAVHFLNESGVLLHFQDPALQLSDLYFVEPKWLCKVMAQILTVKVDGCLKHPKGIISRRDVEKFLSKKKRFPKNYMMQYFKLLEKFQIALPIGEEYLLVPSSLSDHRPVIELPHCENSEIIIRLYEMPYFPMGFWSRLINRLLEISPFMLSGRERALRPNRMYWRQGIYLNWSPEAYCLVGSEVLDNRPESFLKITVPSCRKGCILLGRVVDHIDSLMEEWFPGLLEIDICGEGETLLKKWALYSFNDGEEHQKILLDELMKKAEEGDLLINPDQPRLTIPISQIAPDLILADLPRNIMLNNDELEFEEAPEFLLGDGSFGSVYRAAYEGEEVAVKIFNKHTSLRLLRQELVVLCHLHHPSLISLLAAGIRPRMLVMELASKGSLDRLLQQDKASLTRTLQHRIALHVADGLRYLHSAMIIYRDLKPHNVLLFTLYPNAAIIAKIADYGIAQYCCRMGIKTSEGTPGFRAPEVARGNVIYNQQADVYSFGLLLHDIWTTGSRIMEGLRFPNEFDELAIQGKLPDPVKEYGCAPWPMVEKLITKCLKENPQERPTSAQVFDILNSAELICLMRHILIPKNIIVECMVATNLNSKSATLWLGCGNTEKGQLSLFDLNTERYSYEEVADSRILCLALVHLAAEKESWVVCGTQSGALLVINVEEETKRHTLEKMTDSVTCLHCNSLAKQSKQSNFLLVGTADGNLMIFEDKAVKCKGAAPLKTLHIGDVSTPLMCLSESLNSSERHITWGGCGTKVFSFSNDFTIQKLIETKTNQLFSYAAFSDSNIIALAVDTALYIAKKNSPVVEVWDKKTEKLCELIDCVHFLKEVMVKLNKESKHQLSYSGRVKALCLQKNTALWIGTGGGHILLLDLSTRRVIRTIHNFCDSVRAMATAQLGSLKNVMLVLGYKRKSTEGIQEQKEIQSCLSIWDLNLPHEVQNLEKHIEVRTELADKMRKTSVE
Protocol: Phospho-LRRK2 (S935) was quantified in drug-treated cells using a Phospho-LRRK2 (Ser935) cellular kit (Cisbio) following the manufacturer’s instructions. […] Cells were treated with compounds at the indicated concentrations for 2 h. Medium was removed by aspiration and the cells were rinsed with ice-cold PBS (1 ml). Cells were lysed with 100 µl Cisbio 1X lysis buffer at 23 °C directly in plate for 30 min. […] Clarified lysate (16 µl) was dispensed into one well of a low-volume, round-bottom 384-well plate, and 4 µl LRRK2–phospho-LRRK2 (S935) antibody master mix (Cisbio) was added to each well. The plate was incubated at 23 °C for 4 h.
The TR-FRET signal was calculated as the ratio fluorescence intensity [read B]/[read A].

[3] = molecular target: T2, FKBP12 (Homo sapiens, UniProt P62942); assay: Competition fluorescence polarization assay with FITC-rapamycin tracer; type: binding; details: recombinant FKBP12, Extended Data Fig. 2; read-out: Kd (FKBP12)
T2 construct: His-tag (HRV 3C cleavable) (cleaved yes); made in house; host or cells: Escherichia coli BL21(DE3)
T2 sequence (P62942 whole entry): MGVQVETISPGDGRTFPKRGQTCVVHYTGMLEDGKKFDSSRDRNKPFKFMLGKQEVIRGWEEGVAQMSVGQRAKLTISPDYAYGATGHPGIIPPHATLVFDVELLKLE
Protocol: Compound binding affinity was determined using a competition fluorescence polarization assay. […] The assay buffer was 20 mM HEPES pH 7.5 and 0.01% Triton X-100. […] Data were fitted to a three-parameter sigmoidal curve to derive IC50 values. Ki of the compounds were calculated using a tool provided by S. Wang’s laboratory (http://www.umich.edu/~shaomengwanglab/software/calc_ki/index.html). Data were plotted in GraphPad Prism 9.0.

[4] = read-out: residual kinase activity (LRRK2), 0.495 nM drug, + 10 µM FKBP12
[5] = read-out: residual kinase activity (LRRK2), 0.495 nM drug, no FKBP12
[6] = read-out: residual kinase activity (LRRK2), 1.52 nM drug, + 10 µM FKBP12
[7] = read-out: residual kinase activity (LRRK2), 1.52 nM drug, no FKBP12
[8] = read-out: residual kinase activity (LRRK2), 4.57 nM drug, + 10 µM FKBP12
[9] = read-out: residual kinase activity (LRRK2), 4.57 nM drug, no FKBP12
[10] = read-out: residual kinase activity (LRRK2), 13.7 nM drug, + 10 µM FKBP12
[11] = read-out: residual kinase activity (LRRK2), 13.7 nM drug, no FKBP12
[12] = read-out: residual kinase activity (LRRK2), 41.2 nM drug, + 10 µM FKBP12
[13] = read-out: residual kinase activity (LRRK2), 41.2 nM drug, no FKBP12
[14] = read-out: residual kinase activity (LRRK2), 123 nM drug, + 10 µM FKBP12
[15] = read-out: residual kinase activity (LRRK2), 123 nM drug, no FKBP12
[16] = read-out: residual kinase activity (LRRK2), 370 nM drug, + 10 µM FKBP12
[17] = read-out: residual kinase activity (LRRK2), 370 nM drug, no FKBP12
[18] = read-out: residual kinase activity (LRRK2), 1110 nM drug, + 10 µM FKBP12
[19] = read-out: residual kinase activity (LRRK2), 1110 nM drug, no FKBP12
[20] = read-out: residual kinase activity (LRRK2), 3330 nM drug, + 10 µM FKBP12
[21] = read-out: residual kinase activity (LRRK2), 3330 nM drug, no FKBP12
[22] = read-out: residual kinase activity (LRRK2), 10000 nM drug, + 10 µM FKBP12
[23] = read-out: residual kinase activity (LRRK2), 10000 nM drug, no FKBP12
[24] = 100 nM compound, +1 µM RapaBlock

CCNc1nc(Nc2cc(F)c(C(=O)N3CCOCC3)cc2OC)ncc1C(F)(F)F [GNE7915]
residual kinase activity (LRRK2) ([1]; 0.495 nM drug, no FKBP12): 96 | residual kinase activity (LRRK2) ([1]; 1.52 nM drug, + 10 µM FKBP12): 66 | residual kinase activity (LRRK2) ([1]; 1.52 nM drug, no FKBP12): 75 | residual kinase activity (LRRK2) ([1]; 4.57 nM drug, + 10 µM FKBP12): 39 | residual kinase activity (LRRK2) ([1]; 4.57 nM drug, no FKBP12): 41 | residual kinase activity (LRRK2) ([1]; 13.7 nM drug, + 10 µM FKBP12): 15 | residual kinase activity (LRRK2) ([1]; 13.7 nM drug, no FKBP12): 16 | residual kinase activity (LRRK2) ([1]; 41.2 nM drug, + 10 µM FKBP12): 9 | residual kinase activity (LRRK2) ([1]; 41.2 nM drug, no FKBP12): 10 | residual kinase activity (LRRK2) ([1]; 123 nM drug, + 10 µM FKBP12): 6 | residual kinase activity (LRRK2) ([1]; 123 nM drug, no FKBP12): 3 | residual kinase activity (LRRK2) ([1]; 370 nM drug, + 10 µM FKBP12): 5 | residual kinase activity (LRRK2) ([1]; 370 nM drug, no FKBP12): 3 | residual kinase activity (LRRK2) ([1]; 1110 nM drug, no FKBP12): 3 | residual kinase activity (LRRK2) ([1]; 10000 nM drug, + 10 µM FKBP12): 3 | remaining activity at 0.000495 µM [1, 4]: 84% | remaining activity at 0.000495 µM [1, 5]: 78% | remaining activity at 0.00152 µM [1, 6]: 68% | remaining activity at 0.00152 µM [1, 7]: 68% | remaining activity at 0.00457 µM [1, 8]: 38% | remaining activity at 0.00457 µM [1, 9]: 39% | remaining activity at 0.0137 µM [1, 10]: 17% | remaining activity at 0.0137 µM [1, 11]: 18% | remaining activity at 0.0412 µM [1, 12]: 8% | remaining activity at 0.0412 µM [1, 13]: 6% | remaining activity at 0.123 µM [1, 14]: 5% | remaining activity at 0.123 µM [1, 15]: 4% | remaining activity at […] [1, 16]: 4% | remaining activity at […] [1, 17]: 5% | remaining activity at 1.11 µM [1, 18]: 5% | remaining activity at 1.11 µM [1, 19]: 4% | remaining activity at 3.33 µM [1, 20]: 5% | remaining activity at 3.33 µM [1, 21]: 3% | remaining activity at 10 µM [1, 22]: 5% | remaining activity at 10 µM [1, 23]: 3% | IC50 ([1]; without added FKBP12): 3 nM | IC50 [2]: 81 nM | P-LRRK2(S935) in RAW264.7 cells [2, 24]: 61.9 and 64.8 and 53.2 | P-LRRK2(S935) in RAW264.7 cells ([2]; 100 nM compound, No RapaBlock): 56 and 55.7 and 48.1

CCNc1nc(Nc2cc(F)c(C(=O)N3CCN(C(=O)CCC[C@@H]4/C=C(\C)C[C@H](C)C[C@H](OC)[C@H]5O[C@@](O)(C(=O)C(=O)N6CCCC[C@H]6C(=O)O[C@H](/C(C)=C/[C@@H]6CC[C@@H](O)[C@H](OC)C6)[C@H](C)[C@@H](O)CC4=O)[C@H](C)C[C@@H]5OC)CC3)cc2OC)ncc1C(F)(F)F [FK-GNE7915]
residual kinase activity (LRRK2) ([1]; 0.495 nM drug, + 10 µM FKBP12): 87 | residual kinase activity (LRRK2) ([1]; 0.495 nM drug, no FKBP12): 95 | residual kinase activity (LRRK2) ([1]; 1.52 nM drug, + 10 µM FKBP12): 87 | residual kinase activity (LRRK2) ([1]; 1.52 nM drug, no FKBP12): 95 | residual kinase activity (LRRK2) ([1]; 4.57 nM drug, + 10 µM FKBP12): 65 | residual kinase activity (LRRK2) ([1]; 4.57 nM drug, no FKBP12): 107 | residual kinase activity (LRRK2) ([1]; 13.7 nM drug, no FKBP12): 90 | residual kinase activity (LRRK2) ([1]; 41.2 nM drug, + 10 µM FKBP12): 41 | residual kinase activity (LRRK2) ([1]; 41.2 nM drug, no FKBP12): 70 | residual kinase activity (LRRK2) ([1]; 123 nM drug, + 10 µM FKBP12): 31 | residual kinase activity (LRRK2) ([1]; 123 nM drug, no FKBP12): 47 | residual kinase activity (LRRK2) ([1]; 370 nM drug, no FKBP12): 25 | residual kinase activity (LRRK2) ([1]; 1110 nM drug, + 10 µM FKBP12): 7 | residual kinase activity (LRRK2) ([1]; 1110 nM drug, no FKBP12): 9 | residual kinase activity (LRRK2) ([1]; 3330 nM drug, no FKBP12): 4 | residual kinase activity (LRRK2) ([1]; 10000 nM drug, + 10 µM FKBP12): 5 | residual kinase activity (LRRK2) ([1]; 10000 nM drug, no FKBP12): 3 | remaining activity at 0.000495 µM [1, 4]: 91% | remaining activity at 0.000495 µM [1, 5]: 101% | remaining activity at 0.00152 µM [1, 6]: 91% | remaining activity at 0.00152 µM [1, 7]: 106% | remaining activity at 0.00457 µM [1, 8]: 78% | remaining activity at 0.00457 µM [1, 9]: 94% | remaining activity at 0.0137 µM [1, 10]: 57% | remaining activity at 0.0137 µM [1, 11]: 89% | remaining activity at 0.0412 µM [1, 12]: 38% | remaining activity at 0.0412 µM [1, 13]: 66% | remaining activity at 0.123 µM [1, 14]: 24% | remaining activity at 0.123 µM [1, 15]: 54% | remaining activity at […] [1, 16]: 14% | remaining activity at […] [1, 17]: 29% | remaining activity at 1.11 µM [1, 18]: 8% | remaining activity at 1.11 µM [1, 19]: 10% | remaining activity at 3.33 µM [1, 20]: 5% | remaining activity at 3.33 µM [1, 21]: 5% | remaining activity at 10 µM [1, 22]: 6% | remaining activity at 10 µM [1, 23]: 5% | IC50 ([1]; with 10 µM FKBP12): 21 nM | IC50 ([1]; without added FKBP12): 107 nM | IC50 [2]: 6.7 nM | level of phospho-LRRK2 (S935), % of the basal level ([2]; 100 nM FK-GNE7915): 15% | effect on LRRK2 activity ([2]; 100 nM FK-GNE7915 + 1 µM RapaBlock): had no effect on LRRK2 activity | P-LRRK2(S935) in RAW264.7 cells [2, 24]: 99.2 and 97.5 and 90.7 | P-LRRK2(S935) in RAW264.7 cells ([2]; 100 nM compound, No RapaBlock): 16.7 and 15.6 and 13.4 | P-LRRK2(S935) in RAW264.7 cells ([2]; Conc 0.457247 nM, 0 nM = 100): 84.5 and 90.2 and 94.3 | P-LRRK2(S935) in RAW264.7 cells ([2]; Conc 1.37174 nM, 0 nM = 100): 79.4 and 82.9 and 87.4 | P-LRRK2(S935) in RAW264.7 cells ([2]; Conc 4.11523 nM, 0 nM = 100): 67.8 and 77.9 and 73.6 | P-LRRK2(S935) in RAW264.7 cells ([2]; Conc 12.3457 nM, 0 nM = 100): 32.2 and 34.9 (2×) | P-LRRK2(S935) in RAW264.7 cells ([2]; Conc 37.037 nM, 0 nM = 100): 13.7 and 14.5 and 16.2 | P-LRRK2(S935) in RAW264.7 cells ([2]; Conc 111.111 nM, 0 nM = 100): 11.4 (2×) and 13.1 | P-LRRK2(S935) in RAW264.7 cells ([2]; Conc 333.333 nM, 0 nM = 100): 13.1 and 12.6 and 11.8 | P-LRRK2(S935) in RAW264.7 cells ([2]; Conc 1000 nM, 0 nM = 100): 14 and 15.7 and 13.3

CO[C@H]1C[C@@H](C)C/C(C)=C/[C@@H](C/C=C/C(=O)O)C(=O)C[C@H](O)[C@@H](C)[C@@H](/C(C)=C/[C@@H]2CC[C@@H](O)[C@H](OC)C2)OC(=O)[C@@H]2CCCCN2C(=O)C(=O)[C@]2(O)O[C@H]1[C@@H](OC)C[C@H]2C [Compound 05-012]
Kd [3]: 0.4 nM
